Laboratory results reported in US12715844B2, “Compound, preparation method therefor, composition, kit and use thereof” (SIGNDO BIOTECHNOLOGY (SUZHOU) CO., LTD, priority 2023, dated 2026).

Assays:
[1] = Acute toxicity experiment on rats; settings: three dose groups of high, medium and low doses
22RV1 (PSMA+) [2] = assay: 2-hour ex vivo tissue distribution: fluorescence of tumor and in situ normal prostate; parameters: species or system mice; settings: relative to OTL78
From the text: (§1) The Prostate-specific membrane antigen (PSMA) is overexpressed on prostate cancer cells. The test compound is a PSMA-targeting molecule conjugated with a near-infrared region I dye. The test compound can bind to PSMA and “illuminate” cancer cells upon excitation by a near-infrared light source. In this experiment, the in vivo and ex vivo tissue distribution of the test compound in mice is detected using in vivo live imaging.
(§2) Matrigel was thawed on ice in advance, and the culture medium was pre-cooled on ice. After centrifugation, the cells were resuspended in the pre-cooled culture medium, followed by the addition of HC Matrigel gel in a volume equal to the culture medium. The centrifuge tube containing the cells was placed on ice and transferred to the animal facility. The cells were thoroughly dispersed before inoculation. The back of the neck was disinfected with an alcohol cotton ball, and a single intravenous administration was performed with an inoculation volume of 200 μL per mouse. All operations were performed on ice. When the tumor volume reached 300-400 mm^3, the mice were grouped for administration. Six mice with well-grown and regularly shaped tumors were selected into the group. The six mice were randomly divided into two groups: G1 (OTL78 10 nmol/mouse) and G2 (DGPR1008 10 nmol/mouse) with three mice in each group. The scanning time: 1, 2, 4, 8, 24, and 72 h.
(2) Results of 2-Hour Ex Vivo Tissue Distribution: Fluorescence Ratio of Tumor to In Situ Normal Prostate: […]

22RV1 (PSMA+) [3] = assay: In vivo live imaging comparison with the existing product OTL78; parameters: species or system mice; settings: for TBR (tumor-to-background ratio), in words: from about 2 h to 72 h; for fluorescence value at the tumor site compared with OTL78: mice, each time point; for TBR compared with OTL78: relative to OTL78
From the text: (§3) “V” denotes the volume-to-mass ratio. […] Mice refer to BALB/c nude mice, 6-8 weeks old, weighing 18-20 g; rats refer to SD rats: 8 weeks old, approximately 250 g.
3. Comparison with the Existing Product OTL78
as §1
DGPR1008, 22RV1 (PSMA+), BALB/c nude mouse, 1640 culture medium, FBS, double antibodies, trypsin, Matrigel (BD), vernier caliper, centrifuge, IVIS live imager.
as §2
(1) Results and Data of In Vivo Live Imaging of Drug Efficacy (Mice were Used as Experimental Subjects in this Part)

22RV1 (PSMA+) [4] = assay: Drug efficacy validation by in vivo live imaging, three dose groups; parameters: species or system mice; settings: for targeting properties: 22RV1 tumor mice, in vivo live imaging; for enrichment in the prostate cancer tumor site: high, medium and low doses (25, 50, 100 nmol/mouse), scans 1-48 h
From the text: as §3
2. Drug Efficacy Validation Experiment Using In Vivo Live Imaging
Prostate-specific membrane antigen (PSMA) is overexpressed on prostate cancer cells. The test compound is a PSMA-targeting molecule conjugated with a near-infrared region I dye. The test compound can bind to PSMA and “illuminate” cancer cells upon excitation by a near-infrared light source. In this experiment, the in vivo tissue distribution of the test compound in mice is detected using in vivo live imaging.
DGPR1008, 22RV1 (PSMA+), PC3 (PSMA−), 1640 culture medium, FBS, double antibodies, trypsin, Matrigel (BD), vernier caliper, centrifuge, IVIS live imager.
Matrigel was thawed on ice in advance, and the culture medium was pre-cooled on ice. After centrifugation, the cells were resuspended in the pre-cooled culture medium, followed by the addition of HC Matrigel gel in a volume equal to the culture medium. The centrifuge tube containing the cells was placed on ice and transferred to the animal facility. The cells were thoroughly dispersed before inoculation. The right dorsal shoulder area of the mice was disinfected with an alcohol cotton ball, and a single intravenous administration was performed with an inoculation volume of 200 μL per mouse. All operations were performed on ice. When the tumor volume reached 300-400 mm^3, the mice were grouped for administration. Nine mice with well-grown and regularly shaped tumors were selected into the group. The nine mice were randomly divided into three groups: G1 (25 nmol/mouse), G2 (50 nmol/mouse), and G3 (100 nmol/mouse), with three mice in each group. The scanning time: 1, 2, 4, 8, 24, and 48 h.

[5] = Pharmacokinetic parameters in rat plasma; type: in vivo; settings: compared with OTL78
PSMA receptor = target: T1, PSMA receptor (Homo sapiens, UniProt Q04609); assay: Receptor binding detected by flow cytometry in vitro (competitive binding with DUPA-FITC); settings: 22RV1 (PSMA+) cells, competition with 100 nmol/L DUPA-FITC
T1 construct: endogenous in cells; host or cells: 22RV1 (PSMA+); PC3 (PSMA−) as negative control
T1 sequence (Q04609 whole entry): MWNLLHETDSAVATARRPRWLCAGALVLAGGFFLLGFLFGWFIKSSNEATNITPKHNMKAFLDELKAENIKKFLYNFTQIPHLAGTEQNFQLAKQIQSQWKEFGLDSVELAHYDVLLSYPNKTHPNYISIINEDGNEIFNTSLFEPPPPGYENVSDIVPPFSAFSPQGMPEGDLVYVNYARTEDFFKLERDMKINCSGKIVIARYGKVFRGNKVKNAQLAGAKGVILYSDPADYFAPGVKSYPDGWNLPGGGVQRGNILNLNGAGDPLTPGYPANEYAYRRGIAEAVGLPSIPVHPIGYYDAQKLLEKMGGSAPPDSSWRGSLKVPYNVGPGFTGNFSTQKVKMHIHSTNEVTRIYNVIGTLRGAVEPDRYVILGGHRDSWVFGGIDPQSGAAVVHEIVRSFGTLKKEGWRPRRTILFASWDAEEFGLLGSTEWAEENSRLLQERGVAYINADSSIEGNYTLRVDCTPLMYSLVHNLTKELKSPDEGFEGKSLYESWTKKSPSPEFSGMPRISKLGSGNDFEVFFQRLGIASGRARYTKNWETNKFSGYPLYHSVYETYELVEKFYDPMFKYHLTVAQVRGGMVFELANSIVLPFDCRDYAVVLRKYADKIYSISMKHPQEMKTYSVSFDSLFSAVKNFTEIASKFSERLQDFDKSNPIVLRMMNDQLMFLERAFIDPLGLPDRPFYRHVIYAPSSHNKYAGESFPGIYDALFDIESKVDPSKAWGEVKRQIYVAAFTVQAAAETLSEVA
From the text: 1. Receptor Binding was Detected by Flow Cytometry In Vitro:
Prostate-specific membrane antigen (PSMA) is overexpressed on prostate cancer cells. Both DUPA-FITC and DGPR1008 are capable of targeting the PSMA receptor in prostate cancer cells, with the difference being that DUPA-FITC is connected to a visible light dye (Ex=495 nm, Em=520 nm), whereas DGPR1008 is connected to a near-infrared dye (Ex=776 nm, Em=793 nm). Since the majority types of lasers equipped in flow cytometers operate within the visible light spectrum, the binding affinity of DGPR1008 to the receptor can not be directly measured. Therefore, the competitive binding of DGPR1008 with DUPA-FITC to PSMA is employed to indirectly assess the binding affinity of the test compound to the receptor.
DGPR1008, DUPA-FITC, 22RV1 (PSMA+), PC3 (PSMA−), 1640 culture medium, FBS, double antibiotics, trypsin, centrifuge, 4° C. constant temperature incubator, flow cytometer.
Drug preparation: 100 nmol/L DUPA-FITC was prepared using culture medium. The test compound was diluted to nine concentrations (0.00098 μM, 0.002 μM, 0.008 μM, 0.01 μM, 0.03 μM, 0.05 μM, 0.09 μM, 0.1 μM, and 0.125 μM) using culture medium containing 100 nmol/L DUPA-FITC, with three replicate wells for each concentration.
Cell culture: The cells were seeded in T75 culture flasks. After 48 h, cells in the logarithmic growth phase were taken, digested with trypsin for 1-2 min, and the digestion was then terminated by adding fresh culture medium. After cell counting, the cells were transferred into a 96-well plate (1×10^5 cells/well), totaling 27 wells. The culture medium was discarded by centrifugation (800 rpm, 5 min), and the cells were washed twice with PBS and then centrifuged to collect the cell pellet. The prepared culture media with 9 concentrations were added to the cell-containing wells, with three replicates for each concentration. The cells were incubated at 4° C. in the dark for 30 min, and then the culture medium in the wells was discarded. Cells were washed by adding 300 μL of fresh culture medium (twice) and saline (once) to each well, followed by resuspension in 300 μL of saline for flow cytometry detection.

| SMILES | toxic reactions in acute toxicity experiment [1] | discrimination capability (tumor vs normal prostate) compared with OTL78 (22RV1 (PSMA+) [2]) | TBR (tumor-to-background ratio), in words (22RV1 (PSMA+) [3]) | fluorescence value at the tumor site compared with OTL78 (22RV1 (PSMA+) [3]) | TBR compared with OTL78 (22RV1 (PSMA+) [3]) | targeting properties (22RV1 (PSMA+) [4]) | enrichment in the prostate cancer tumor site (22RV1 (PSMA+) [4]) | clearance in rats in vivo, in words [5] | binding affinity to PSMA receptor (PSMA receptor) |
| --- | --- | --- | --- | --- | --- | --- | --- | --- | --- |
| CC1(C)C(=CC=C2CCCC(C=CC3=[N+](CCCCS(=O)(=O)[O-])c4ccc(S(=O)(=O)[O-])cc4C3(C)C)=C2Oc2ccc(CC(NC(=O)CCOCCCOCCCOCCOCCOCCNC(=O)CCC(NC(=O)NC(CCC(=O)[O-])C(=O)[O-])C(=O)[O-])C(=O)[O-])cc2)N(CCCCS(=O)(=O)[O-])c2ccc(S(=O)(=O)[O-])cc21.[Na+].[Na+].[Na+].[Na+].[Na+].[Na+].[Na+] (stereo not drawn) [Example 41] | no toxic reactions were observed | approximately 5 fold | good TBR | greater fluorescence values at the tumor site than OTL78 | higher TBR | good targeting properties | enriched in the prostate cancer tumor site | cleared more rapidly | good affinity |
| CC1(C)C(=CC=C2CCCC(C=CC3=[N+](CCCCS(=O)(=O)[O-])c4ccc(S(=O)(=O)[O-])cc4C3(C)C)=C2Oc2ccc(CC(NC(=O)CCOCCCOCCCCCOCCOCCNC(=O)CCC(NC(=O)NC(CCC(=O)[O-])C(=O)[O-])C(=O)[O-])C(=O)[O-])cc2)N(CCCCS(=O)(=O)[O-])c2ccc(S(=O)(=O)[O-])cc21.[Na+].[Na+].[Na+].[Na+].[Na+].[Na+].[Na+] (stereo not drawn) [Example 51] | no toxic reactions were observed | approximately 5 fold | good TBR | greater fluorescence values at the tumor site than OTL78 | higher TBR | good targeting properties | enriched in the prostate cancer tumor site | cleared more rapidly | good affinity |
